Test results taken from the NIST ThermoML archive (doi:10.1016/j.tca.2011.10.009).
Numbers after ± are expanded uncertainties.

Assays:
[1] = Liquid; for mass density: Vibrating tube method
[2] = refractive index (Na D-line) (dimensionless); mn = molality of the nth substance listed, in mol/kg; details: 298.15 K, 101 kPa, Liquid, Standard Abbe refractometry
[3] = mn = molality of the nth substance listed, in mol/kg; details: 101 kPa, Liquid; for viscosity: Capillary tube (Ostwald / Ubbelohde) method; for mass density: Vibrating tube method

CCCCCCn1cc[n+](C)c1.[Br-] [3-hexyl-1-methyl-1H-imidazolium bromide]
mass density ([1]; 298.15 K, 101.33 kPa): 1222.1 ± 0.5 kg/m3

CCCCCCn1cc[n+](C)c1.[Br-] [3-hexyl-1-methyl-1H-imidazolium bromide] + CN(C)C=O
refractive index ([2]; m1 = 0.0233): 1.4303 ± 0.0005 | refractive index ([2]; m1 = 0.0435): 1.4306 ± 0.0005 | refractive index ([2]; m1 = 0.0658): 1.4311 ± 0.0005 | refractive index ([2]; m1 = 0.0824): 1.4316 ± 0.0005 | refractive index ([2]; m1 = 0.1049): 1.432 ± 0.0005 | refractive index ([2]; m1 = 0.1228): 1.4325 ± 0.0005 | refractive index ([2]; m1 = 0.1428): 1.433 ± 0.0005 | refractive index ([2]; m1 = 0.1583): 1.4336 ± 0.0005 | refractive index ([2]; m1 = 0.1869): 1.4344 ± 0.0005 | refractive index ([2]; m1 = 0.2051): 1.4347 ± 0.0005 | viscosity ([3]; 298.15 K, m1 = 2.17e-05): 0.897 ± 0.015 mPa·s | viscosity ([3]; 298.15 K, m1 = 4.17e-05): 0.913 ± 0.015 mPa·s | viscosity ([3]; 298.15 K, m1 = 6.26e-05): 0.929 ± 0.015 mPa·s | viscosity ([3]; 298.15 K, m1 = 7.78e-05): 0.938 ± 0.015 mPa·s | viscosity ([3]; 298.15 K, m1 = 9.98e-05): 0.952 ± 0.015 mPa·s | viscosity ([3]; 298.15 K, m1 = 0.0001171): 0.969 ± 0.015 mPa·s | viscosity ([3]; 298.15 K, m1 = 0.0001363): 0.985 ± 0.016 mPa·s | viscosity ([3]; 298.15 K, m1 = 0.0001507): 0.997 ± 0.016 mPa·s | viscosity ([3]; 298.15 K, m1 = 0.0001787): 1.014 ± 0.016 mPa·s | viscosity ([3]; 298.15 K, m1 = 0.0001961): 1.022 ± 0.016 mPa·s | mass density ([3]; 298.15 K, m1 = 0.0233): 945.6 ± 0.82 kg/m3 | mass density ([3]; 298.15 K, m1 = 0.0435): 946.89 ± 0.83 kg/m3 | mass density ([3]; 298.15 K, m1 = 0.0658): 948.29 ± 0.83 kg/m3 | mass density ([3]; 298.15 K, m1 = 0.0824): 949.31 ± 0.83 kg/m3 | mass density ([3]; 298.15 K, m1 = 0.1049): 950.67 ± 0.83 kg/m3 | mass density ([3]; 298.15 K, m1 = 0.1228): 951.73 ± 0.83 kg/m3 | mass density ([3]; 298.15 K, m1 = 0.1428): 952.91 ± 0.83 kg/m3 | mass density ([3]; 298.15 K, m1 = 0.1583): 953.83 ± 0.83 kg/m3 | mass density ([3]; 298.15 K, m1 = 0.1869): 955.45 ± 0.84 kg/m3 | mass density ([3]; 298.15 K, m1 = 0.2051): 956.47 ± 0.84 kg/m3 | mass density ([3]; 303.15 K, m1 = 0.0233): 942.35 ± 0.82 kg/m3 | mass density ([3]; 303.15 K, m1 = 0.0435): 943.65 ± 0.82 kg/m3 | mass density ([3]; 303.15 K, m1 = 0.0658): 945.07 ± 0.82 kg/m3 | mass density ([3]; 303.15 K, m1 = 0.0824): 946.1 ± 0.82 kg/m3 | mass density ([3]; 303.15 K, m1 = 0.1049): 947.48 ± 0.83 kg/m3 | mass density ([3]; 303.15 K, m1 = 0.1228): 948.58 ± 0.83 kg/m3 | mass density ([3]; 303.15 K, m1 = 0.1428): 949.77 ± 0.83 kg/m3 | mass density ([3]; 303.15 K, m1 = 0.1583): 950.67 ± 0.83 kg/m3 | mass density ([3]; 303.15 K, m1 = 0.1869): 952.33 ± 0.83 kg/m3 | mass density ([3]; 303.15 K, m1 = 0.2051): 953.36 ± 0.83 kg/m3 | mass density ([3]; 308.15 K, m1 = 0.0233): 937.3 ± 0.81 kg/m3 | mass density ([3]; 308.15 K, m1 = 0.0435): 938.59 ± 0.82 kg/m3 | mass density ([3]; 308.15 K, m1 = 0.0658): 939.99 ± 0.82 kg/m3 | mass density ([3]; 308.15 K, m1 = 0.0824): 941.01 ± 0.82 kg/m3 | mass density ([3]; 308.15 K, m1 = 0.1049): 942.38 ± 0.82 kg/m3 | mass density ([3]; 308.15 K, m1 = 0.1228): 943.44 ± 0.82 kg/m3 | mass density ([3]; 308.15 K, m1 = 0.1428): 944.62 ± 0.82 kg/m3 | mass density ([3]; 308.15 K, m1 = 0.1583): 945.53 ± 0.82 kg/m3 | mass density ([3]; 308.15 K, m1 = 0.1869): 947.16 ± 0.83 kg/m3 | mass density ([3]; 308.15 K, m1 = 0.2051): 948.17 ± 0.83 kg/m3 | mass density ([3]; 313.15 K, m1 = 0.0233): 932.21 ± 0.81 kg/m3 | mass density ([3]; 313.15 K, m1 = 0.0435): 933.56 ± 0.81 kg/m3 | mass density ([3]; 313.15 K, m1 = 0.0658): 935.02 ± 0.81 kg/m3 | mass density ([3]; 313.15 K, m1 = 0.0824): 936.08 ± 0.81 kg/m3 | mass density ([3]; 313.15 K, m1 = 0.1049): 937.52 ± 0.81 kg/m3 | mass density ([3]; 313.15 K, m1 = 0.1228): 938.65 ± 0.82 kg/m3 | mass density ([3]; 313.15 K, m1 = 0.1428): 939.88 ± 0.82 kg/m3 | mass density ([3]; 313.15 K, m1 = 0.1583): 940.81 ± 0.82 kg/m3 | mass density ([3]; 313.15 K, m1 = 0.1869): 942.51 ± 0.82 kg/m3 | mass density ([3]; 313.15 K, m1 = 0.2051): 943.57 ± 0.82 kg/m3

C(=NCCN=Cc1ccccn1)c1ccccn1 [N,N'-bis(2-pyridinylmethylene)-1,2-ethanediamine] + CN(C)C=O
viscosity ([3]; 298.15 K, m1 = 0.0402): 0.878 ± 0.015 mPa·s | viscosity ([3]; 298.15 K, m1 = 0.0764): 0.893 ± 0.015 mPa·s | viscosity ([3]; 298.15 K, m1 = 0.1208): 0.909 ± 0.015 mPa·s | viscosity ([3]; 298.15 K, m1 = 0.1644): 0.926 ± 0.015 mPa·s | mass density ([3]; 298.15 K, m1 = 0.0402): 945.46 ± 0.82 kg/m3 | mass density ([3]; 298.15 K, m1 = 0.0764): 946.76 ± 0.83 kg/m3 | mass density ([3]; 298.15 K, m1 = 0.1208): 948.07 ± 0.83 kg/m3 | mass density ([3]; 298.15 K, m1 = 0.1644): 949.29 ± 0.83 kg/m3 | mass density ([3]; 303.15 K, m1 = 0.0402): 941.5 ± 0.82 kg/m3 | mass density ([3]; 303.15 K, m1 = 0.0764): 942.72 ± 0.82 kg/m3 | mass density ([3]; 303.15 K, m1 = 0.1208): 943.95 ± 0.82 kg/m3 | mass density ([3]; 303.15 K, m1 = 0.1644): 944.72 ± 0.82 kg/m3 | mass density ([3]; 308.15 K, m1 = 0.0402): 936.79 ± 0.81 kg/m3 | mass density ([3]; 308.15 K, m1 = 0.0764): 937.92 ± 0.81 kg/m3 | mass density ([3]; 308.15 K, m1 = 0.1208): 939.19 ± 0.82 kg/m3 | mass density ([3]; 308.15 K, m1 = 0.1644): 940.14 ± 0.82 kg/m3 | mass density ([3]; 313.15 K, m1 = 0.0402): 931.89 ± 0.81 kg/m3 | mass density ([3]; 313.15 K, m1 = 0.0764): 933.39 ± 0.81 kg/m3 | mass density ([3]; 313.15 K, m1 = 0.1208): 934.92 ± 0.81 kg/m3 | mass density ([3]; 313.15 K, m1 = 0.1644): 936.16 ± 0.81 kg/m3

CN(C)C=O [dimethylformamide]
viscosity ([1]; 298.15 K, 101 kPa, Capillary tube (Ostwald / Ubbelohde) method): 0.861 ± 0.014 mPa·s | mass density ([1]; 298.15 K, 101 kPa): 944.09 ± 0.82 kg/m3 | mass density ([1]; 303.15 K, 101 kPa): 940.82 ± 0.82 kg/m3 | mass density ([1]; 308.15 K, 101 kPa): 935.79 ± 0.81 kg/m3 | mass density ([1]; 313.15 K, 101 kPa): 930.63 ± 0.81 kg/m3
